Results published in patent US20240100201A1, “Labeling precursors and radiotracers for nuclear medicine diagnosis and therapy of prostate cancer-induced bone metastases” (SCV-SpezialChemikalienVertrieb GmbH, priority 2021, published 2024).
Like-named read-outs stand apart in the source and are kept apart here. Each block holds one compound with its values, some of them ahead of it.

What was measured:
[1] = target: T1, PSMA (Homo sapiens, UniProt Q04609); experiment: competitive radioligand assay on PSMA-positive LNCaP cells (Ki); type: binding
T1 construct: PSMA-positive LNCaP cells from Sigma-Aldrich; host or cells: LNCaP cells
Protocol: By means of comparative radioligand assays, binding affinity for PSMA is determined for the radiotracer or labeling precursor DOTA.L-Lys(SA.Pam)KuE-617 and reference structures. The Ki-value for [^natLu]Lu-DOTA.L-Lys(SA.Pam)KuE-617 corresponds roughly to the value for the labeling precursor DOTA.L-Lys(SA.Pam) KuE-617. […] Compared to DOTA.L-Lys.KuE-617—corresponding to structural formula (14) in scheme 31—the Ki of [^natLu]Lu-DOTA.L-Lys(SA.Pam)KuE-617 is greater by a factor of about 2. It can be seen from this that the squaric acid-pamidronate group reduces affinity for PSMA.
Non-active (cold) [natLu]Lu complexes are prepared by shaking a solution containing the labeling precursor DOTA-L-Lys(SA.Pam)-KuE-617 (371 μl, 1 mg/ml, 250 nmol) with LuCl3 (129 μl, 1 mg/ml, 375 nmol, metal to labeling precursor ratio 1.5:1) in 1 M ammonium acetate buffer at 95° C. for 2 hours. Complex formation is monitored by ESI-LC/MS.
PSMA binding affinity is determined by the competitive radioligand assay described by Benešová et al. (Benešová, M.; Schaefer, M.; Bauder-Wüst, U.; Afshar-Oromieh, A.; Kratochwil, C.; Mier, W.; Haberkorn, U.; Kopka, K.; Eder, M. Preclinical Evaluation of a Tailor-Made DOTA-Conjugated PSMA Inhibitor with Optimized Linker Moiety for Imaging and Endoradiotherapy of Prostate Cancer. J. Nucl. Med. 2015, 56 (6), 914-920.). For this purpose, PSMA-positive LNCaP cells from Sigma-Aldrich in RPMI 1640 (Thermo Fisher Scientific) supplemented with 10% fetal bovine serum (Thermo Fisher Scientific), 100 μg/ml streptomycin and 100 units/ml penicillin are cultured at 37° C. in 5% CO2. The LNCaP cells are incubated with increasing concentrations of solutions containing the labeling precursors in the presence of 0.75 nM [^68Ga]Ga-PSMA-10 for 45 min. Free radioactivity is removed by several washes with ice-cold PBS. The samples obtained are measured in a y counter (2480 WIZARD2 Automatic Gamma Counter, PerkinElmer). The measurement data are evaluated in GraphPad Prism 9 using non-linear regression.

[2] = target: T1, PSMA; experiment: cell-based competitive assay on LNCaP cells (PSMA affinity, IC50); type: binding; conditions: 45 min, 68Ga-labeled PSMA reference compound
Text: Using a cell-based assay, the affinity of the KuE targeting vector with a lipophilic linker—analogously to PSMA-617—and with a squaric acid linker was examined using the compounds NH2.DOTAGA.KuE-617 and NH2.DOTAGA.QS.KuE (structural formulae (8) and (10) in scheme 32).
For the assay, LNCaP cells were pipetted into multiwell plates (Merck Millipore Multiscreen™). To the compounds to be analyzed, in increasing concentrations, was in each case added a defined amount or concentration of the reference compound ^68Ga[Ga]PSMA-with known Kdvalue, and the mixture was incubated in the wells with the LNCaP cells for 45 min. After washing several times, the cell-bound activity was determined.
In order to determine non-specific binding, an excess of the PSMA inhibitor 2-PMPA (2-(phosphonomethyl)[…]) was additionally added to all compounds, and they were subjected to the same LNCaP assay-as described above.

[3] = lipophilicity, partition in n-octanol and PBS; type: physicochemical; conditions: pH 7.4
Protocol: The lipophilicity of […] is determined by determining the partition equilibrium of the compound in a mixture of n-octanol and PBS.
LogD7.4 of the respective compound is determined via the partition coefficient in n-octanol and PBS. The labeling solution is adjusted to pH 7.4 and 5 MBq is diluted in 700 μl of n-octanol and 700 μl of PBS. It is shaken at 1500 rpm for 2 min and then centrifuged. 400 μl of the n-octanol phase and 400 μl of the PBS phase were each transferred to a new Eppendorf tube. 3-6 μl is then pipetted onto a TLC plate and analyzed using a phosphor imager. The logD7.4 is calculated based on the ratio of the activities of the two phases. The measurement of each phase is also repeated twice more with the sample of higher activity, such that three logD7.4 values can be obtained and an average can be calculated.

[4] = affinity for hydroxyapatite (HAP) of 177Lu-labeled compounds; type: binding; conditions: ordinary HAP, 1 h room temperature
Protocol: Calcium-containing crystalline hydroxyapatite is an essential component of mammalian bones and is suitable as a model substrate for the in vitro study of bisphosphonate accumulation in healthy bone tissue and bone metastases. […] In contrast, […] is found to have an HAP-enriched fraction of only 1.2%. In order to determine selectivity, accumulation on HAP previously treated with excess pamidronate was additionally measured.
Hydroxyapatite (20 mg) is incubated in saline (1 ml) for 24 h. 50 μl of the radiotracer [^177Lu]Lu-DOTA-L-Lys(SA.Pam)-KuE-617 (5 MBq) or [^177Lu]Lu-PSMA-617 (5 MBq) is added. Each suspension is vortexed with a vortex mixer for 20 s and incubated at room temperature for 1 h. […] The radioactivity of the liquids and HAP-containing supernatants obtained is measured in each case with a curiemeter (Isomed 2010 activimeter, MED Nuclear-Medizintechnik Dresden GmbH). The binding of [^177Lu]Lu-DOTA-L-Lys(SA.Pam)-KuE-617 and [^177Lu]Lu-PSMA-617 is determined as a percentage of the activity absorbed on HAP. As a reference, the HAP binding of free Lu-177 is measured in an analogous manner. […] For this purpose, HAP (20 mg) in saline solution (1 ml) is incubated with pamidronate (100 mg) and the respective activities of [^177Lu]Lu-DOTA-L-Lys(SA.Pam)-KuE-617 and free Lu-177 are determined.

[5] = adsorption isotherms on hydroxyapatite by the method of Langmuir and Freundlich; type: binding; conditions: Langmuir-Freundlich
Protocol: For this purpose, the adsorption therms are determined by the method of Langmuir and Freundlich.
For comparison, schemes 23 and 24 show conjugates of the chelator NODAGA with squaric acid pamidronate (NODAGA.QS.Pam) and NODAGA with zoledronate (NODAGA.Zol), and also the respective coefficients of adsorption KLF, measured by the method of Langmuir and Freundlich.

[6] = LNCaP cells, 0.75 nM [68Ga]Ga-PSMA-10, 45 min, read-out: PSMA Ki

T1 sequence (Q04609 whole entry): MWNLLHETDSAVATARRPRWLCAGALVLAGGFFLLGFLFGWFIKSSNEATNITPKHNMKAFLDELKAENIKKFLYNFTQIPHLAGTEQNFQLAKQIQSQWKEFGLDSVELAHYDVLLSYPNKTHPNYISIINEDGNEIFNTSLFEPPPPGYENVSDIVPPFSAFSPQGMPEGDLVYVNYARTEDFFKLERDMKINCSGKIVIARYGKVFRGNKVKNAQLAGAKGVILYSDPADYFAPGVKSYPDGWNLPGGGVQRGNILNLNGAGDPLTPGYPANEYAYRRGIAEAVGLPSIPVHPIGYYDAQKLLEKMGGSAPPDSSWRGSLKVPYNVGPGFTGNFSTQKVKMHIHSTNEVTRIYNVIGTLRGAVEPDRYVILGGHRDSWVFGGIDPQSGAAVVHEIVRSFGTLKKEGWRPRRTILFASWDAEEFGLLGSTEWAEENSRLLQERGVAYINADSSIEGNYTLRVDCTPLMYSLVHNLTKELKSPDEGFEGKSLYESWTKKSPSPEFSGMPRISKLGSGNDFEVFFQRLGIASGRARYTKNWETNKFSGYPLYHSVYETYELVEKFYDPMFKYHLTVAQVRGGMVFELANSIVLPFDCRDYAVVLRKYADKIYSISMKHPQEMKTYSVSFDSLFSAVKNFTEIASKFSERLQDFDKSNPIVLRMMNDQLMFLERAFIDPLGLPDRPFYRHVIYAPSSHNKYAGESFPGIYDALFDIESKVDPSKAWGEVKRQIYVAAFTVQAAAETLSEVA

Compound: O=C(O)CCC(NC(=O)NC(CCCCNC(=O)C(Cc1ccc2ccccc2c1)NC(=O)C1CCC(CNC(=O)C(CCCCNc2c(NCCC(O)(P(=O)(O)O)P(=O)(O)O)c(=O)c2=O)NC(=O)CN2CCN(CC(=O)O)CCN(CC(=O)O)CCN(CC(=O)O)CC2)CC1)C(=O)O)C(=O)O [DOTA.L-Lys(SA.Pam)KuE-617]
Ki [1]: 53 ± 4 nM

Compound: O=C(O)CCC(NC(=O)NC(CCCCNC(=O)C(Cc1ccc2ccccc2c1)NC(=O)C1CCC(CNC(=O)CCC(C(=O)O)N2CCN(CC(=O)O)CCN(CCNc3c(NCCC(O)(P(=O)(O)O)P(=O)(O)O)c(=O)c3=O)CCN(CC(=O)O)CC2)CC1)C(=O)O)C(=O)O (stereo not drawn) [Pam.SA.DOTAGA.KuE-617]
IC50 [2]: 49.8 ± 10 nM

Compound: O=C(O)CN1CCN(CC(=O)O)CCN(C(CCC(=O)NCCNc2c(NCCC(O)(P(=O)(O)O)P(=O)(O)O)c(=O)c2=O)C(=O)O)CC1 (stereo not drawn) [NODAGA.QS.Pam]
coefficient of adsorption KLF compared with NODAGA.Zol [5]: about three times greater

Compound: O=C(O)CCC(NC(=O)NC(CCCCNC(=O)C(Cc1ccc2ccccc2c1)NC(=O)C1CCC(CNC(=O)CN2CCN(CC(=O)O)CCN(CC(=O)O)CCN(CC(=O)O)CC2)CC1)C(=O)O)C(=O)O (stereo not drawn) [PSMA-617, reference compound]
Ki [1, 6]: 7 ± 1 nM

Further lines, with some results ahead:

Ki [1, 6]: 20 ± 3 nM
Compound: NCCCCC(NC(=O)CN1CCN(CC(=O)O)CCN(CC(=O)O)CCN(CC(=O)O)CC1)C(=O)NCC1CCC(C(=O)NC(Cc2ccc3ccccc3c2)C(=O)NCCCCC(NC(=O)NC(CCC(=O)O)C(=O)O)C(=O)O)CC1 [DOTA.L-Lys.KuE-617]

IC50 [2]: 20.6 ± 3.4 nM
Compound: NCCN1CCN(CC(=O)O)CCN(C(CCC(=O)NCC2CCC(C(=O)NC(Cc3ccc4ccccc4c3)C(=O)NCCCCC(NC(=O)NC(CCC(=O)O)C(=O)O)C(=O)O)CC2)C(=O)O)CCN(CC(=O)O)CC1 (stereo not drawn) [NH2.DOTAGA.KuE-617]

IC50 [2]: 20.2 ± 3.5 nM
Compound: NCCN1CCN(CC(=O)O)CCN(C(CCC(=O)NCCNc2c(NCCCCC(NC(=O)NC(CCC(=O)O)C(=O)O)C(=O)O)c(=O)c2=O)C(=O)O)CCN(CC(=O)O)CC1 (stereo not drawn) [NH2.DOTAGA.QS.KuE]

LogD7,4 (n-octanol/PBS) [3]: −2.2 ± 0.20
Compound: [^177Lu]Lu-PSMA-617
proportion bound to HAP [4]: 1.2%
